Laboratory results published in patent US20260325685A1, “Radiopharmaceutical Compositions Targeting Carbonic Anhydrase IX and Uses Thereof” (RayzeBio, Inc., priority 2023, published 2026).
Like-named read-outs stand apart in the source and are kept apart here.

Key:
[1] = target: T1, human CA-IX (Homo sapiens, UniProt Q16790); assay: Surface Plasmon Resonance (SPR) binding kinetics to recombinant human CA-IX (Biacore 8K, single-cycle kinetics, 1:1 binding model)
T1 construct: purchased Acro CA9-H82E3
Procedure, shortened: (§1)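 Using captured protein at 1200-1800 RU, we injected compound at 100-0.39 nM in 1% DMSO buffer, pH 7.4, 25° C, then corrected curves for reference and DMSO to obtain rate constants.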

[2] = target: T2, human CA-XII (Homo sapiens, UniProt O43570); assay: Surface Plasmon Resonance (SPR) binding kinetics to recombinant human CA-XII (Biacore 8K, single-cycle kinetics, 1:1 binding model)
T2 construct: purchased Creative BioMart CA12-261H
T2 sequence (O43570 25-354): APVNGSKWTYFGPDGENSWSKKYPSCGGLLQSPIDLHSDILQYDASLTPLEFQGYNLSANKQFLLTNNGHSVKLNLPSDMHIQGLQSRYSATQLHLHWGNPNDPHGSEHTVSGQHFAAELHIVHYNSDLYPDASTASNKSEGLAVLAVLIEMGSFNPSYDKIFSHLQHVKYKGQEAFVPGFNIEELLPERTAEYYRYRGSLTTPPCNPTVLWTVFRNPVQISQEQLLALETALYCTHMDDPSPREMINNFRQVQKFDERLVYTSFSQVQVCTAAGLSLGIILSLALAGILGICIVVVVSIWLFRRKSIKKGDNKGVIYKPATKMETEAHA
Procedure, shortened: as §1

[3] = Chelated Metal: Lu-175; SPR, 25° C., pH 7.4; read-out: CAIX KD
[4] = Chelated Metal: Lu-175, 25° C., pH 7.4, read-out: CAXII KD
[5] = Chelated Metal: None; SPR, 25° C., pH 7.4; read-out: CAIX KD
[6] = KD ratio CAXII/CAIX; Chelated Metal: None
[7] = Chelated Metal: None, 25° C., pH 7.4, read-out: CAXII KD
[8] = read-out: CAIX KD; Chelated Metal: Lu-175; SPR, 25° C., pH 7.4
[9] = read-out: CAXII KD, Chelated Metal: Lu-175, 25° C., pH 7.4

Row | SMILES | Kd [1, 3] [nM] | Kd [2, 4] [nM] | further results
1 | CC(CCCC(=O)N1CCC(C(=O)O)(C(=O)NCC(=O)N2CCN(C(=O)CN3CCN(CC(=O)O)CCN(CC(=O)O)CCN(CC(=O)O)CC3)C[C@@H]2C(=O)NCCn2cc(C34CC(C(=O)Nc5nnc(S(N)(=O)=O)s5)(C3)C4)nn2)CC1)(c1ccc(O)cc1)c1ccc(O)cc1.[Lu+3] [Compound 107.12] | 1 to 2.5 | > 10 | 
2 | NS(=O)(=O)c1nnc(NC(=O)C23CC(c4cn(CCNC(=O)[C@@H]5CN(C(=O)CN6CCN(CC(=O)O)CCN(CC(=O)O)CCN(CC(=O)O)CC6)CCN5C(=O)C[C@H](NC(=O)C[C@H](NC(=O)Cc5ccc(C6CC6)cc5)C(=O)O)C(=O)O)nn4)(C2)C3)s1 [Compound 109.63] |  |  | Kd [1, 5]: < 1 nM; Ratio (CAXII/CAIX) [1, 6]: *** (10 < *** ≤ 50); Kd [2, 7]: 2.5 to 10 nM
3 | NS(=O)(=O)c1nnc(NC(=O)C23CCC(c4cn(CCNC(=O)[C@@H]5CN(C(=O)CCCc6ccc(O)cc6)CCN5C(=O)CC[C@H](NC(=O)C[C@H](NC(=O)CN5CCN(CC(=O)O)CCN(CC(=O)O)CCN(CC(=O)O)CC5)C(=O)O)C(=O)O)nn4)(CC2)CC3)s1.[Lu+3] [Compound 132] |  |  | Kd [1, 8]: < 1 nM; Kd [2, 9]: 1 to 2.5 nM
4 | CC(CCC(=O)N[C@@H](CC(=O)N[C@@H](CC(=O)N1CCN(C(=O)CN2CCN(CC(=O)O)CCN(CC(=O)O)CCN(CC(=O)O)CC2)C[C@H]1C(=O)NCCn1cc(COc2ccc3nc(S(N)(=O)=O)sc3c2)nn1)C(=O)O)C(=O)O)(c1ccc(O)cc1)c1ccc(O)cc1.[Lu+3] [Compound 107.26] | < 1 | > 10 | 
5 | CC(CCC(=O)N[C@@H](CC(=O)N[C@@H](Cc1cn([C@@H](CCCCn2cc(C34CCC(C(=O)Nc5nnc(S(N)(=O)=O)s5)(CC3)CC4)nn2)C(=O)NCCOCCOCCNC(=O)CN2CCN(CC(=O)O)CCN(CC(=O)O)CCN(CC(=O)O)CC2)nn1)C(=O)O)C(=O)O)(c1ccc(O)cc1)c1ccc(O)cc1.[Lu+3] [Compound 101] |  |  | Kd [1, 8]: < 1 nM; Kd [2, 9]: < 1 nM
6 | CC(CCC(=O)N[C@@H](CC(=O)N[C@@H](CC(=O)N1CCN(C(=O)CN2CCN(CC(=O)O)CCN(CC(=O)O)CCN(CC(=O)O)CC2)C[C@H]1C(=O)NCCn1cc(-c2ccc(C(=O)Nc3nnc(S(N)(=O)=O)s3)c(Cl)c2)nn1)C(=O)O)C(=O)O)(c1ccc(O)cc1)c1ccc(O)cc1.[Lu+3] [Compound 107.30] | < 1 | 1 to 2.5 | 
7 | NS(=O)(=O)c1nnc(NC(=O)C23CC(c4cn(CCNC(=O)[C@H]5CN(C(=O)CN6CCN(CC(=O)O)CCN(CC(=O)O)CCN(CC(=O)O)CC6)CCN5C(=O)CC[C@H](NC(=O)Cc5n[nH]c6ccccc56)C(=O)O)nn4)(C2)C3)s1.[Lu+3] [Compound 107.16] | 1 to 2.5 | 2.5 to 10 | 
8 | NS(=O)(=O)c1nnc(NC(=O)C23CCC(c4cn(CCNC(=O)[C@@H]5CN(C(=O)CN6CCN(CC(=O)O)CCN(CC(=O)O)CCN(CC(=O)O)CC6)CCN5C(=O)CC[C@H](NC(=O)C[C@H](NC(=O)CCC5CC5)C(=O)O)C(=O)O)nn4)(CC2)CC3)s1.[Lu+3] [Compound 109.48] | < 1 | < 1 | 
9 | Cc1cc(C(=O)Nc2nnc(S(N)(=O)=O)s2)ccc1-c1cn(CCNC(=O)C2(NC(=O)CNC(=O)C3(C(N)=O)CCN(C(=O)CCCC(C)(c4ccc(O)cc4)c4ccc(O)cc4)CC3)CCN(C(=O)CN3CCN(CC(=O)O)CCN(CC(=O)O)CCN(CC(=O)O)CC3)CC2)nn1.[Lu+3] [Compound 117.7] | < 1 | > 10 | 
10 | NS(=O)(=O)c1nnc(NC(=O)C23CC(c4cn(CCNC(=O)[C@@H]5CN(C(=O)CN6CCN(CC(=O)O)CCN(CC(=O)O)CCN(CC(=O)O)CC6)CCN5C(=O)CNC(=O)C5(C(=O)O)CCN(C(=O)CCCCc6ccc(O)cc6)CC5)nn4)(C2)C3)s1.[Lu+3] [Compound 112.3] | 1 to 2.5 | > 10 | 
11 | NS(=O)(=O)c1nnc(NC(=O)C23CC(c4cn(CCNC(=O)[C@@H]5CN(C(=O)CN6CCN(CC(=O)O)CCN(CC(=O)O)CCN(CC(=O)O)CC6)CCN5C(=O)C[C@H](NC(=O)C[C@H](NC(=O)Cc5ccc(S(F)(F)(F)(F)F)cc5)C(=O)O)C(=O)O)nn4)(C2)C3)s1.[Lu+3] [Compound 109.20] | < 1 | 2.5 to 10 | 
12 | CNC(=O)C1(C(=O)NCC(=O)N2CCN(C(=O)CN3CCN(CC(=O)O)CCN(CC(=O)O)CCN(CC(=O)O)CC3)C[C@@H]2C(=O)NCCn2cc(C34CC(C(=O)Nc5nnc(S(N)(=O)=O)s5)(C3)C4)nn2)CCN(C(=O)CCCC(C)(c2ccc(O)cc2)c2ccc(O)cc2)CC1.[Lu+3] [Compound 107.34] | < 1 | > 10 | 
13 | NS(=O)(=O)c1nnc(NC(=O)C23CC(c4cn(CCNC(=O)[C@@H]5CN(C(=O)CN6CCN(CC(=O)O)CCN(CC(=O)O)CCN(CC(=O)O)CC6)CCN5C(=O)CNC(=O)C5(C(=O)O)CCN(C(=O)c6cc(C(F)(F)F)n[nH]6)CC5)nn4)(C2)C3)s1.[Lu+3] [Compound 112.11] | 2.5 to 10 | > 10 | 
14 | NS(=O)(=O)c1nnc(NC(=O)C23CC(c4cn(CCNC(=O)[C@@H]5CN(C(=O)CN6CCN(CC(=O)O)CCN(CC(=O)O)CCN(CC(=O)O)CC6)CCN5C(=O)C[C@H](Nc5ncc(C(=O)N6CCC(c7ccc(O)cc7)(c7ccc(O)cc7)CC6)cn5)C(=O)O)nn4)(C2)C3)s1.[Lu+3] [Compound 111.4] | 2.5 to 10 | > 10 | 
15 | CC(CCCC(=O)N1CCC(C(N)=O)(C(=O)NCC(=O)NC2(C(=O)NCCn3cc(COc4ccc5nc(S(N)(=O)=O)sc5c4)nn3)CCN(C(=O)CC[C@H](C(=O)O)N3CCN(CC(=O)O)CCN(CC(=O)O)CCN(CC(=O)O)CC3)CC2)CC1)(c1ccc(O)cc1)c1ccc(O)cc1.[Lu+3] [Compound 127.9] | < 1 | > 10 | 
16 | NS(=O)(=O)c1nnc(NC(=O)C23CCC(c4cn(CCNC(=O)[C@@H]5CN(C(=O)CN6CCN(CC(=O)O)CCN(CC(=O)O)CCN(CC(=O)O)CC6)CCN5C(=O)CNC(=O)C5(C(=O)O)CCN(C(=O)CCC6CCCCC6)CC5)nn4)(CC2)CC3)s1.[Lu+3] [Compound 107.10] | < 1 | < 1 | 
17 | CC(CCCC(=O)N1CCOC[C@H]1C(=O)N[C@@H](CC(=O)NC1(C(=O)NCCn2cc(C34CC(C(=O)Nc5nnc(S(N)(=O)=O)s5)(C3)C4)nn2)CCN(C(=O)CN2CCN(CC(=O)O)CCN(CC(=O)O)CCN(CC(=O)O)CC2)CC1)C(=O)O)(c1ccc(O)cc1)c1ccc(O)cc1.[Lu+3] [Compound 117.3] | < 1 | > 10 | 
18 | N[C@@H](CC(=O)N[C@@H](CC(=O)N1CCN(C(=O)CCOCCOCCOCCOCCN(CCOCCOCCOCCOCCC(=O)N2CCN(C(=O)C[C@H](NC(=O)C[C@H](N)C(=O)O)C(=O)O)[C@H](C(=O)NCCn3cc(C45CC(C(=O)Nc6nnc(S(N)(=O)=O)s6)(C4)C5)nn3)C2)C(=O)CNC(=O)CN2CCN(CC(=O)O)CCN(CC(=O)O)CCN(CC(=O)O)CC2)C[C@H]1C(=O)NCCn1cc(C23CC(C(=O)Nc4nnc(S(N)(=O)=O)s4)(C2)C3)nn1)C(=O)O)C(=O)O.[Lu+3] [Compound 131.5] | < 1 | < 1 | 
19 | CC(CCC(=O)N[C@@H](CC(=O)N[C@@H](CC(=O)N1CCN(C(=O)OCCOCCNC(=O)CN2CCN(CC(=O)O)CCN(CC(=O)O)CCN(CC(=O)O)CC2)C[C@@H]1CCCCn1cc(CCCC(=O)Nc2nnc(S(N)(=O)=O)s2)nn1)C(=O)O)C(=O)O)(c1ccc(O)cc1)c1ccc(O)cc1.[Lu+3] [Compound 124] |  |  | Kd [1, 8]: 2.5 to 10 nM; Kd [2, 9]: 2.5 to 10 nM
20 | CC(CCC(=O)N1CCOC[C@H]1C(=O)N[C@@H](CC(=O)N1CCN(C(=O)CN2CCN(CC(=O)O)CCN(CC(=O)O)CCN(CC(=O)O)CC2)C[C@@H]1C(=O)NCCn1cc(C23CC(C(=O)Nc4nnc(S(N)(=O)=O)s4)(C2)C3)nn1)C(N)=O)(c1ccc(O)cc1)c1ccc(O)cc1.[Lu+3] [Compound 107.19] | 1 to 2.5 | > 10 | 
21 | CC(CCCC(=O)N1CCC(C(N)=O)(C(=O)NCC(=O)N2CCN(C(=O)CN3CCN(CC(=O)O)CCN(CC(=O)O)CCN(CC(=O)O)CC3)C[C@H]2C(=O)NCCn2nnc(C34CC(C(=O)Nc5nnc(S(N)(=O)=O)s5)(C3)C4)c2C(=O)O)CC1)(c1ccc(O)cc1)c1ccc(O)cc1.[Lu+3] [Compound 107.58] | < 1 | > 10 | 
22 | CC(CCC(=O)N[C@@H](CC(=O)N[C@@H](CC(=O)N1CCN(C(=O)CN2CCN(CC(=O)O)CCN(CC(=O)O)CCN(CC(=O)O)CC2)C[C@@H]1CCCCn1cc(C23CCC(C(=O)Nc4nnc(S(N)(=O)=O)s4)(CC2)C3)nn1)C(=O)O)C(=O)O)(c1ccc(O)cc1)c1ccc(O)cc1 [Compound 104.2] |  |  | Kd [1, 5]: < 1 nM; Ratio (CAXII/CAIX) [1, 6]: * (1 < * < 5); Kd [2, 7]: < 1 nM
23 | CC(CCC(=O)N1CCOC[C@H]1C(=O)N[C@@H](CC(=O)N1CCN(C(=O)CN2CCN(CC(=O)O)CCN(CC(=O)O)CCN(CC(=O)O)CC2)C[C@@H]1Cn1cc(C23CC(C(=O)Nc4nnc(S(N)(=O)=O)s4)(C2)C3)nn1)C(=O)O)(c1ccc(O)cc1)c1ccc(O)cc1.[Lu+3] [Compound 114] |  |  | Kd [1, 8]: 1 to 2.5 nM; Kd [2, 9]: > 10 nM
24 | CC(CCNC(=O)N1CCC(C(N)=O)(C(=O)NCC(=O)N2CCN(C(=O)CN3CCN(CC(=O)O)CCN(CC(=O)O)CCN(CC(=O)O)CC3)C[C@H]2C(=O)NCCn2cc(C34CC(C(=O)Nc5nnc(S(N)(=O)=O)s5)(C3)C4)nn2)CC1)(c1ccc(O)cc1)c1ccc(O)cc1.[Lu+3] [Compound 107.56] | 1 to 2.5 | > 10 | 
25 | CC(CCCC(=O)N1CCC(C(=O)O)(C(=O)NCC(=O)N2CCN(C(=O)CN3CCN(CC(=O)O)CCN(CC(=O)O)CCN(CC(=O)O)CC3)C[C@@H]2C(=O)N[C@@H](Cn2cc(C34CC(C(=O)Nc5nnc(S(N)(=O)=O)s5)(C3)C4)nn2)C(=O)O)CC1)(c1ccc(O)cc1)c1ccc(O)cc1.[Lu+3] [Compound 107.23] | < 1 | > 10 | 
